Experimental data: patent publication US12421257B2, “Compositions and methods for inhibiting group II intron RNA” (YALE UNIVERSITY, priority 2018, dated 2025)
In brackets after ≈: the same amount, converted by molar mass.

Tests used:
HEK-293T cells = assay: Cytotoxicity in HEK-293T cells (Cell Titer Glo); format: cell-based, human; conditions: Homo sapiens, cytotoxicity, 24 hours with compound, read-out: IC50 HEK-293
Method: HEK-293T cells were cultured in Dulbecco's Modified Eagle's Medium (DMEM) (Gibco) supplemented with 10% Fetal Bovine Serum (FBS, Gibco) and 100 U/ml of Penicillin-Streptomycin (Gibco) at 37° C. and 5% CO2. For the cytotoxicity experiments, cells were aliquoted into black 96-well plates with a clear bottom (Corning 3603) at a concentration of 10,000 cells per well. The cells were grown at 37° C., 5% CO2 for 5-6 hours, then the medium was replaced with the same medium without FBS and cells were grown at 37° C., 5% CO2 for 24 hours. Freshly prepared stock solutions of test compounds (12.8 mg/ml in DMSO) were serially diluted 1:2 with DMSO into the first 11 successive wells of a 12-well row on a 96-well plate as described above. Well 12 was used as a growth control (no compound). […] After incubation, cell viability was determined using the luminescent Cell Titer Glo cell viability assay (Promega), in which 100 μl of the assay reagent was added to each well of the assay plate. After gentle shaking for 7-10 minutes, the plates were analyzed on a Synergy H1 plate reader (BioTek). Luminescence was plotted against the compound concentration and IC50 values were determined by fitting the data to a 4-parameter logistic function c+(d−c)/(1+(x/a)^b), where a is the IC50, b is the slope parameter, c is the minimum response and d is the maximum response. Experiments were replicated to ensure reproducibility.

[1] = system: ai5γ group II intron (D135 ribozyme); assay: Fluorescent D135 ribozyme cleavage assay (IC50); format: biochemical, Saccharomyces cerevisiae; conditions: D135 ribozyme cleavage of substrate 17/2 DL, 100 mM MgCl2, 500 mM KCl, 37° C., 10 minutes
Method: The D135 ribozyme (Su et al., 2005, Nucleic Acids Res, 33:6674-6687), fluorescently labeled oligo substrate 17/2 DL (FIG. 1A-FIG. 1D) (both at 20 nM final concentrations in 50 mM MOPS, pH 7.0, 100 mM MgCl2, 0.5M KCl), and the test compounds (final concentration of 10 μM in 50 mM MOPS, pH 7.0, 100 mM MgCl2, 0.5M KCl) were aliquoted onto black non-binding 384-well plates (Corning 3757) using the multidrop combi (ThermoFisherScientific) and pintool (V & P Scientific). The reaction mixtures were incubated at 37° C. for 45 minutes, then the reaction was quenched with 100 mM EDTA and fluorescence intensity was analyzed on a Tecan Infinite multimode plate reader (λex 520 nm, λem 560 nm, 5 nm bandwidth). Data were normalized to untreated wells and wells lacking the D135 ribozyme, and percent of inhibition was calculated using ActivityBase (IDBS). The Z′-factor was calculated as described (Zhang et al., 1999, J Biomol Screen, 4:67-73): Z′=1−3×(σp+σn)/|μp−μn|, • where μp and σn are mean value and standard deviation for the positive control (substrate only), and where μn and σn are mean value and standard deviation for the negative control (no compound). The average Z′-factor from the screen was 0.83±0.03. IC50 Measurement for the Small Molecule Inhibition of the D135 Ribozyme Cleavage Reaction.
Black 96-well plates (Corning 3695) were filled with 50 μl of solution containing 20 nM D135 ribozyme, 20 nM double-labeled substrate 17/2 DL and small molecule inhibitor in 50 mM MOPS, pH 7.0, 100 mM MgCl2 and 500 mM KCl. Small molecule inhibitors were tested at 19 different concentrations ranging from 5 nM to 1 mM. Plates were incubated at 37° C. for 10 minutes, then reaction mixtures were quenched with 100 mM EDTA and analyzed on the Synergy H1 plate reader (BioTek). Each experiment was performed in triplicate. Data were fit to a 4-parameter logistic function c+(d−c)/(1+(x/a)^b), where a is the IC50, b is the slope parameter, c is the minimum response and d is the maximum response. Data are reported as average±s.e.m

C. parapsilosis = assay: MIC determination against C. parapsilosis; format: cell-based, Candida parapsilosis; conditions: Lodderomyces parapsilosis; RPMI-1640, 35° C. or 37° C., turbidity after 24 and 48 hours
Method: Minimal inhibitory concentrations (MICs) for C. parapsilosis were determined in a final volume of 100 μl. Fresh stock solutions of control antifungal drugs (Amphotericin B and Itraconazole) and of test compounds were prepared at 3.2 mg/ml and at 12.8 mg/ml respectively in DMSO. After placing the stock in the first well, solutions of test compounds and antifungal controls were serially diluted 1:2 with DMSO into the first […] successive wells of a 12-well row on a 96-well plate (as described above). After dilution, 2.5 μl from each of these 10 wells were transferred onto a separate 96-well plate and diluted with 122.5 μl of RPMI-1640 medium (Sigma). Wells 11 and 12 contained 2.5 μl DMSO and 122.5 μl of RPMI-1640 as a positive growth control (no compound) and sterility control (no inoculum added). A 50 μl volume was taken from each of the RPMI dilutions (wells 1-12) and transferred to the wells of a third 96-well plate (assay plate), where they were mixed with an equal volume (50 μl) of freshly prepared inoculum of C. parapsilosis in RPMI-1640 medium, set at a density to provide the 0.5×10^3 to 2.5×10^3 colony forming units per 1 mL (except for the sterility control). Sterility control was mixed with 50 μl of sterile medium.
The final concentration range of the assay was 0.25-128 μg/ml for test compounds and 0.0625-32 μg/ml for Amphotericin B and Itraconazole. The final concentration of DMSO was 1%. The assay plate was incubated at 35° C. or 37° C. and visually analyzed for turbidity after 24 and 48 hours of incubation. The lowest compound concentration at which no growth was apparent is reported as the MIC. All experiments were performed in triplicate.

Row | SMILES | IC50 (HEK-293T cells) [µg/mL] | IC50 [1] [µM] | MIC (C. parapsilosis) [µg/mL]
1 | COc1cc(/C=N/NC(=O)c2cc(O)c(O)c(O)c2)cc(OC)c1O [APY-035] | 39.3 | 7.7 | 4 (≈ 11.5 µM)
2 | CN1CCC(CNC(=O)c2ccc3oc(C(=O)c4cc(O)c(O)c(O)c4)cc3c2)CC1 [NED-2023, N-((1-methylpiperidin-4-yl)methyl)-2-(3,4,5-trihydroxybenzoyl)-benzofuran-5-carboxamide] | 36 | 6 ± 2 | 16 (≈ 37.7 µM)
3 | O=C(c1cc(O)c(O)c(O)c1)N1CCC(c2ccccc2)C1 (stereo not drawn) [APY-086] | 43.7 | 61 | 64 (≈ 214 µM)
4 | CCN(CC)Cc1ccc(-c2ccc(-c3nc(-c4cc(O)c(O)c(O)c4)cs3)cc2)cc1 [APY-092] | 24.8 | 1.3 | 16 (≈ 35.8 µM)
5 | O=C(N/N=C/c1cncnc1)c1cc(O)c(O)c(O)c1 [APY-057] | 39.4 | 12.9 | 16 (≈ 58.3 µM)
6 | CCN(Cc1ccccc1)C(=O)c1ccc(-c2ccc3oc(C(=O)c4cc(O)c(O)c(O)c4)cc3c2)cc1 [APY-096] | 1.4 |  | 2 to 4 (≈ 3.94 to 7.88 µM)
7 | O=C(N/N=C/c1cc(F)c(O)c(F)c1)c1cc(O)c(O)c(O)c1 [APY-031] | 47.8 | 6.3 | 32 (≈ 98.7 µM)
8 | COc1cc(/C=N/NC(=O)c2cc(O)c(O)c(O)c2)cc(O)c1OC [APY-036] | 10.4 | 7.7 | 4 (≈ 11.5 µM)
9 | O=C(N/N=C/c1ccc(O)cc1Cl)c1cc(O)c(O)c(O)c1 [APY-033] | 50 | 6.5 | 8 (≈ 24.8 µM)
10 | NNC(=O)c1cc(O)c(O)c(O)c1 [NED-2047, 3,4,5-trihydroxybenzohydrazide] |  | 77 ± 3 | 16 to 32 (≈ 86.9 to 174 µM)
11 | O=C(N/N=C/c1c(OCc2ccccn2)ccc2ccccc12)c1cc(O)c(O)c(O)c1 [NED-2175, (E)-3,4,5-trihydroxy-N′-((2-(pyridin-2-ylmethoxy)naphthalen-1-yl)methylene)benzohydrazide] | 14 | 2.3 ± 0.8 | 4 to 8 (≈ 9.31 to 18.6 µM)
12 | C#CCOc1ccc2ccccc2c1/C=N/NC(=O)c1cc(O)c(O)c(O)c1 [NED-2174, (E)-3,4,5-trihydroxy-N′-((2-(prop-2-yn-1-yloxy)naphthalen-1-yl)methylene)benzohydrazide] | 2.7 | 5 ± 1 | 4 to 8 (≈ 10.6 to 21.3 µM)
13 | CCN(CC)CCNC(=O)c1c(C)[nH]c(/C=C/C(=O)c2cc(O)c(O)c(O)c2)c1C [NED-2041] |  | 12 ± 4 | 32 (≈ 77 µM)
14 | Cc1[nH]c(/C=C/C(=O)c2cc(O)c(O)c(O)c2)c(C)c1C(=O)N1CCC(N(C)C)CC1 [NED-2042] |  | > 1000 | 16 (≈ 37.4 µM)
15 | COc1ccc2cc(/C=N/NC(=O)c3cc(O)c(O)c(O)c3)ccc2c1 [NED-2136] | 1 | 1.35 ± 0.15 | 2 (≈ 5.68 µM)
16 | O=C(c1cc(O)c(O)c(O)c1)c1cc2ccccc2o1 [APY-068, Benzofuran-2-yl(3,4,5-trihydroxyphenyl)methanone] | 1.3 ± 0.3 |  | 16 (≈ 59.2 µM)
17 | O=C(N/N=C/c1cccc2ccccc12)c1cc(O)c(O)c(O)c1 [NED-2134, (E)-3,4,5-trihydroxy-N′-(naphthalen-1-ylmethylene)benzohydrazide] | 4.2 | 3.3 ± 1 | 2 to 4 (≈ 6.21 to 12.4 µM)
18 | CN(C)c1ccc(/C=N/NC(=O)c2cc(O)c(O)c(O)c2)cc1 [NED-2048, (E)-N′-(4-(dimethylamino)benzylidene)-3,4,5-trihydroxybenzohydrazide] | 9.8 | 4 ± 1 | 4 to 8 (≈ 12.7 to 25.4 µM)
19 | O=C(c1cc(O)c(O)c(O)c1)c1cc2cc(-c3ccc(C(=O)NC4CCCC4)c(Cl)c3)ccc2o1 [APY-095] | 2.5 |  | 4 to 8 (≈ 8.13 to 16.3 µM)
20 | COc1cc(/C=N/NC(=O)c2cc(O)c(O)c(O)c2)cc(OC)c1OC [NED-2039, (E)-3,4,5-trihydroxy-N′-(3,4,5-trimethoxybenzylidene)benzohydrazide] |  | 6 ± 1 | 8 (≈ 22.1 µM)
21 | CC(C)N1CCN(C(=O)c2ccc3oc(C(=O)c4cc(O)c(O)c(O)c4)cc3c2)CC1 [NED-2022, (4-isopropylpiperazin-1-yl)(2-(3,4,5-trihydroxybenzoyl)-benzofuran-5-yl)methanone] |  | 52 ± 12 | 16 (≈ 37.7 µM)
22 | O=C(O)c1ccc2oc(C(=O)c3cc(O)c(O)c(O)c3)cc2c1 [NED-2017] |  | > 1000 | 16 to 32 (≈ 50.9 to 102 µM)
23 | Cc1ccc(NC(=O)c2ccc3oc(C(=O)c4cc(O)c(O)c(O)c4)cc3c2)c(C)c1 [NED-2021, N-(2,4-dimethylphenyl)-2-(3,4,5-trihydroxybenzoyl)benzofuran-5-carboxamide] |  | > 1000 | 32 to 64 (≈ 76.7 to 153 µM)
24 | O=C(N/N=C/C1CCCCC1)c1cc(O)c(O)c(O)c1 [NED-2251, (E)-N′-(cyclohexylmethylene)-3,4,5-trihydroxybenzohydrazide] |  |  | 16 to 32 (≈ 57.5 to 115 µM)
25 | O=C1/C(=C/c2cc(O)c(O)c(O)c2)Oc2ccccc21 [APY-024, (Z)-2-(3,4,5-Trihydroxybenzylidene)benzofuran-3(2H)-one] | 23 ± 2 |  | 8 (≈ 29.6 µM)
26 | COc1cc(/C=C2\Oc3cc(O)cc(O)c3C2=O)cc(OC)c1 [APY-012] |  | > 500 | > 128
27 | CCCCNS(=O)(=O)c1ccc(-c2ccc3oc(C(=O)c4cc(O)c(O)c(O)c4)cc3c2)cc1 [APY-094, N-Butyl-4-{2[(3,4,5-trihydroxyphenyl)carbonyl]-1-benzofuran-5-yl}benzene-1-sulfonamide] | 15 ± 4 |  | 8 to 16 (≈ 16.6 to 33.2 µM)
